Laboratory results taken from the supplement of paper PMC12076712.

Assays:
[1] = molecular target: RPS6KA4 (UniProt O75676); assay: pIC50, competition of probe 3 labelling in live cells; conditions: cell material: Jurkat cells
[2] = molecular target: PAK2 (UniProt Q13177); assay: as above; conditions: cell material: Jurkat cells
[3] = molecular target: UniProt Q9NWV4; assay: as above; conditions: cell material: Jurkat cells
[4] = molecular target: T1, CDKL5 (UniProt O76039); assay: as above; conditions: cell material: Jurkat cells
T1 sequence (whole entry): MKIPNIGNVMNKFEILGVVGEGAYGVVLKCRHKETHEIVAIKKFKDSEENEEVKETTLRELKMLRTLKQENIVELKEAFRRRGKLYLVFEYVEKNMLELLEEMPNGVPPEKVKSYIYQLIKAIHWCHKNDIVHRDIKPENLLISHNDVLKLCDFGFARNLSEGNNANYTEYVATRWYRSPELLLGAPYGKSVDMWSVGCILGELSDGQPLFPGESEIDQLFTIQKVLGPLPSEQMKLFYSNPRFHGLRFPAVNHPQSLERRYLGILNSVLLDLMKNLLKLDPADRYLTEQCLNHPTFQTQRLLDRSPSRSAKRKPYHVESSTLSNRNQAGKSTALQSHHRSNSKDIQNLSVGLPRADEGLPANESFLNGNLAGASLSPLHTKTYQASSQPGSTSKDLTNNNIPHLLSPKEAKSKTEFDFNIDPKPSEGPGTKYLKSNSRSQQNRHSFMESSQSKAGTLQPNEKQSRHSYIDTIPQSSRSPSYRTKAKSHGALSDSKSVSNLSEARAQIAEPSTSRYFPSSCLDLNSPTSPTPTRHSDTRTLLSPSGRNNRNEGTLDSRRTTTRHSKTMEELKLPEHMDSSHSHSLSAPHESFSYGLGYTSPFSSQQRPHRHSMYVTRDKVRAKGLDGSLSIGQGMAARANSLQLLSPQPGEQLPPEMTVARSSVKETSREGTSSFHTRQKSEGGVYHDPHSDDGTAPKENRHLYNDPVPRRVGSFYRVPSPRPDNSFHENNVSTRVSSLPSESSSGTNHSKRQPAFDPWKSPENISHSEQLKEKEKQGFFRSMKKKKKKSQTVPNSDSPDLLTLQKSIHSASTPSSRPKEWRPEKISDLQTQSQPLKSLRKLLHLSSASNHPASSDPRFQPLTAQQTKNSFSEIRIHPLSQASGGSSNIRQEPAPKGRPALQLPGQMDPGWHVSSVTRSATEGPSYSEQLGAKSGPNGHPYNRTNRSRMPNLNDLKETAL

[5] = molecular target: MGLL (UniProt Q99685); assay: as above; conditions: cell material: Jurkat cells
Chain of MGLL (Q99685 whole entry): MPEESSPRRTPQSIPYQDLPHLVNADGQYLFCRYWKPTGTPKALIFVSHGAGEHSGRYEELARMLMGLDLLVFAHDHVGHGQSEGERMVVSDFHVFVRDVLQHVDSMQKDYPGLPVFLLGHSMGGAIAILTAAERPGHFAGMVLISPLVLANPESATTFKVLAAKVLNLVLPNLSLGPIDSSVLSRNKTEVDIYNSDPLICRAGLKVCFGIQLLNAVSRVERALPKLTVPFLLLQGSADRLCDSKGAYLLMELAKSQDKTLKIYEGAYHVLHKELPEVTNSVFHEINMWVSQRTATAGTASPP

[6] = molecular target: LZK (UniProt O43283); assay: pIC50, kinobeads binding competition; conditions: cell material: Lysate mix
Chain of LZK (O43283 whole entry): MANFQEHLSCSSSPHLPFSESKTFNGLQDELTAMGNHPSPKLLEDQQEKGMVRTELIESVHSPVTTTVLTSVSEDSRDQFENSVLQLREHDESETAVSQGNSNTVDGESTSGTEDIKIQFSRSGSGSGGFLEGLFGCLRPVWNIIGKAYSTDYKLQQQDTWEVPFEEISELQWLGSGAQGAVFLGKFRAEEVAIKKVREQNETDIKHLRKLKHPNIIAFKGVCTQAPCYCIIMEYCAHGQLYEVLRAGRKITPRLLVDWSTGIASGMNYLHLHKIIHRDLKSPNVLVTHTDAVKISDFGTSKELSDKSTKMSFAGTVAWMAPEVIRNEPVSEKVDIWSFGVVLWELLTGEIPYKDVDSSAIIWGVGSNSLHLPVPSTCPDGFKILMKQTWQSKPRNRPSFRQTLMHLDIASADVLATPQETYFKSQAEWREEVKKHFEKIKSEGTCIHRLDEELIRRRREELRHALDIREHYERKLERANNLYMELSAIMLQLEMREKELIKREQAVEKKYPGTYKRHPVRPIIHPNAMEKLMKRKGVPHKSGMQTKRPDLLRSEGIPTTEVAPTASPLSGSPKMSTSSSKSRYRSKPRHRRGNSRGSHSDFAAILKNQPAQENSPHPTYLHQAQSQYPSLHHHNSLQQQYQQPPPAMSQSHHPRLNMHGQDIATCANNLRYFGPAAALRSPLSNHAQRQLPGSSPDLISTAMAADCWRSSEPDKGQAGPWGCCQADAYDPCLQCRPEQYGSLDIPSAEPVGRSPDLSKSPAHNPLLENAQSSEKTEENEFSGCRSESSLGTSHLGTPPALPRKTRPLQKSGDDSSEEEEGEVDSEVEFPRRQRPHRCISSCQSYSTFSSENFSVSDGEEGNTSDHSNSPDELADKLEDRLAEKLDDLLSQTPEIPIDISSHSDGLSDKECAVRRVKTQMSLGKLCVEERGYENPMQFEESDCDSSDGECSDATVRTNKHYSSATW
In short: (§1)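 Jurkat cells were exposed alive to nine compound concentrations (top 30 μM, 1:4 steps) or vehicle for 60 min at 37 °C and then lysed. In a second format, nine concentrations (top 30 μM, 1:5 steps) were incubated for 60 min at 4 °C with Jurkat lysate or with a 1:1:1:1 lysate mix of HEK293, K-562, HepG2 and placenta. Proteins captured on Kinobeads were digested and quantified by TMT10 LC-MS/MS. pIC50 values were derived from logistic dose-response fits (R drc package) of fold changes relative to vehicle, in biological duplicates.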

[7] = molecular target: UniProt Q9H093; assay: pIC50, kinobeads binding competition; conditions: cell material: Lysate mix
Chain of UniProt Q9H093 (Q9H093 whole entry): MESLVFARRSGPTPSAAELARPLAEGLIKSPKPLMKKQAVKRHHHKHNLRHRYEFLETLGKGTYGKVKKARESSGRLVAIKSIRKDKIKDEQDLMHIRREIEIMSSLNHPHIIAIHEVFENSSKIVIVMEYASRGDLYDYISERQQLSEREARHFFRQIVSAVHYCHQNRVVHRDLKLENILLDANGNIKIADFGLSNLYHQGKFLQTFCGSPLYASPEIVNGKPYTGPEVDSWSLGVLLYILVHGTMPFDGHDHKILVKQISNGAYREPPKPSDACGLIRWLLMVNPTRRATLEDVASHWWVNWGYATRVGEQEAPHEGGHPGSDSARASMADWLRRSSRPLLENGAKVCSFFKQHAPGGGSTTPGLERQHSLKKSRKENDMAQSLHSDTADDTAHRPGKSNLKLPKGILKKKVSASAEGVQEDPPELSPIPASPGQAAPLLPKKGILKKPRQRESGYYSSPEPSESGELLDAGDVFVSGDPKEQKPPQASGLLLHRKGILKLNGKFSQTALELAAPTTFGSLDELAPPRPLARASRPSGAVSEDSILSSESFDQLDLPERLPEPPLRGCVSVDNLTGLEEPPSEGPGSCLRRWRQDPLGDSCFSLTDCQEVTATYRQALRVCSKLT
In short: as §1

[8] = molecular target: T2, PBK (UniProt Q96KB5); assay: pIC50, kinobeads binding competition; conditions: cell material: Jurkat cells
T2 sequence (whole entry): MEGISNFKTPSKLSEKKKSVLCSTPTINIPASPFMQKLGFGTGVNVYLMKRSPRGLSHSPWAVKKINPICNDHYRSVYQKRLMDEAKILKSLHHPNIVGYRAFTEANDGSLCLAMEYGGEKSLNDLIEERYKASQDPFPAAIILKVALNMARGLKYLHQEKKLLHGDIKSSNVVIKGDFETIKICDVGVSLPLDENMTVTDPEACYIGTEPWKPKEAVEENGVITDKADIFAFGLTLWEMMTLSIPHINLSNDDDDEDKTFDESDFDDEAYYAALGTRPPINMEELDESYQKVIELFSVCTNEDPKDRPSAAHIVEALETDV
In short: as §1

[9] = molecular target: T3, CAMK4 (UniProt Q16566); assay: pIC50, kinobeads binding competition
T3 sequence (whole entry): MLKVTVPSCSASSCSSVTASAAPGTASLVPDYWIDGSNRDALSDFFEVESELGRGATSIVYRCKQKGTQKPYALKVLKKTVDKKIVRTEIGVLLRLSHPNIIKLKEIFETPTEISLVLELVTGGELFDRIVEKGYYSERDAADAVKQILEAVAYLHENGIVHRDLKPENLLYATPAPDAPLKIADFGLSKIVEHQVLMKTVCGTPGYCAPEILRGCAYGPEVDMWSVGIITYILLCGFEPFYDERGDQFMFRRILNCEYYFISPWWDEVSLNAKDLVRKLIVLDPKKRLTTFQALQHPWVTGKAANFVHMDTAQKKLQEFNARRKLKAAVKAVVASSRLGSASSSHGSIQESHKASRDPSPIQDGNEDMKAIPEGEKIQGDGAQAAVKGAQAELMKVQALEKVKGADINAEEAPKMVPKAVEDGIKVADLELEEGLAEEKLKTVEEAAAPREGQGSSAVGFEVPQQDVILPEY
In short: as §1

[10] = molecular target: SRPK2 (UniProt P78362); assay: pIC50, kinobeads binding competition
Chain of SRPK2 (P78362 whole entry, looked up): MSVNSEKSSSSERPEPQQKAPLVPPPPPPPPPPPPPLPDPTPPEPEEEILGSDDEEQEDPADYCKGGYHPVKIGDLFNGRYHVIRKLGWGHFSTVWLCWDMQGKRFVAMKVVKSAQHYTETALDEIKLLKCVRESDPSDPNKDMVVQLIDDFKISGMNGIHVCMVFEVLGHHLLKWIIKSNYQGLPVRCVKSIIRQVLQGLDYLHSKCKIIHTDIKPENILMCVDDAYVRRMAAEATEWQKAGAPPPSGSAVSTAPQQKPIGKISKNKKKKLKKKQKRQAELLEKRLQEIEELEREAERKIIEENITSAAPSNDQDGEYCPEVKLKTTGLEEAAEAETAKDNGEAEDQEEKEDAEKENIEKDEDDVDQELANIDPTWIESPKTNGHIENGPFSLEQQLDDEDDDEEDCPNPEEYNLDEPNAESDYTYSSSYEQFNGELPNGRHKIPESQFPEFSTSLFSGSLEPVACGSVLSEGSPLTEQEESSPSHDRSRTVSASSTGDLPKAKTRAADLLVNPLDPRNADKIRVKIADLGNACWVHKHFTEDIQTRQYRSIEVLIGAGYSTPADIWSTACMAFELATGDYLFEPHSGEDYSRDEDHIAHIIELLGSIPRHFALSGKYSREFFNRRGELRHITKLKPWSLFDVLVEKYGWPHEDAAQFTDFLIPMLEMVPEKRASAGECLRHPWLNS
In short: as §1

[11] = molecular target: UniProt Q6XUX3; assay: pIC50, kinobeads binding competition; conditions: cell material: Lysate mix
Chain of UniProt Q6XUX3 (Q6XUX3 whole entry): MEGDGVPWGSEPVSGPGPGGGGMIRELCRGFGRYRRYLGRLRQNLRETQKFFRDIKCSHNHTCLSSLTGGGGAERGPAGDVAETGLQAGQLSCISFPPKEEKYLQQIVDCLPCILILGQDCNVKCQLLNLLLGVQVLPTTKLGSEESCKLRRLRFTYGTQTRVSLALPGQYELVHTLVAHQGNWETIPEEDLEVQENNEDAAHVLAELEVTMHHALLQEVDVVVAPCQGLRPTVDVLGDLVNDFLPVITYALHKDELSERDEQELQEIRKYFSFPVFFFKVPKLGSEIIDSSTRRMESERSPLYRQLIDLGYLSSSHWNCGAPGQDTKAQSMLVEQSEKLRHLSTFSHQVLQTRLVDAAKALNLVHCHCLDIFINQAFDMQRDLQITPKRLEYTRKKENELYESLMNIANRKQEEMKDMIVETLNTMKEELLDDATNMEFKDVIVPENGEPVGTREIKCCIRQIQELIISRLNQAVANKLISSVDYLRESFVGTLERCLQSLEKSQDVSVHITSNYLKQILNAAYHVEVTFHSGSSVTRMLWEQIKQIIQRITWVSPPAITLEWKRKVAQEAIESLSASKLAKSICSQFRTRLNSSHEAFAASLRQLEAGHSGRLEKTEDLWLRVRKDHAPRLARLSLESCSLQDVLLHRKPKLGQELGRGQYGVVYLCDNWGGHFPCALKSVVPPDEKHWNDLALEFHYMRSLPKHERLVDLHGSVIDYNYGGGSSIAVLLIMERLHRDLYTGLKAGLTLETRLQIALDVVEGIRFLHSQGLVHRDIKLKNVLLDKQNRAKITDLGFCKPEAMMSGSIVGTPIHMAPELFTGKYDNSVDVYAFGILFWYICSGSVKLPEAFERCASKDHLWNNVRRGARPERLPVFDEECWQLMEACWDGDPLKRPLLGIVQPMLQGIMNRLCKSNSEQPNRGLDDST
In short: as §1

Chain of UniProt Q9NWV4 (Q9NWV4 whole entry): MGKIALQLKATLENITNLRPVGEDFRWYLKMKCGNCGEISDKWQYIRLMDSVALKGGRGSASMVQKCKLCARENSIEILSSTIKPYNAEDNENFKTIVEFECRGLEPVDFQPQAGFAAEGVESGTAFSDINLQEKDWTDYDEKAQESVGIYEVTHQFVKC
Chain of RPS6KA4 (O75676 whole entry, looked up): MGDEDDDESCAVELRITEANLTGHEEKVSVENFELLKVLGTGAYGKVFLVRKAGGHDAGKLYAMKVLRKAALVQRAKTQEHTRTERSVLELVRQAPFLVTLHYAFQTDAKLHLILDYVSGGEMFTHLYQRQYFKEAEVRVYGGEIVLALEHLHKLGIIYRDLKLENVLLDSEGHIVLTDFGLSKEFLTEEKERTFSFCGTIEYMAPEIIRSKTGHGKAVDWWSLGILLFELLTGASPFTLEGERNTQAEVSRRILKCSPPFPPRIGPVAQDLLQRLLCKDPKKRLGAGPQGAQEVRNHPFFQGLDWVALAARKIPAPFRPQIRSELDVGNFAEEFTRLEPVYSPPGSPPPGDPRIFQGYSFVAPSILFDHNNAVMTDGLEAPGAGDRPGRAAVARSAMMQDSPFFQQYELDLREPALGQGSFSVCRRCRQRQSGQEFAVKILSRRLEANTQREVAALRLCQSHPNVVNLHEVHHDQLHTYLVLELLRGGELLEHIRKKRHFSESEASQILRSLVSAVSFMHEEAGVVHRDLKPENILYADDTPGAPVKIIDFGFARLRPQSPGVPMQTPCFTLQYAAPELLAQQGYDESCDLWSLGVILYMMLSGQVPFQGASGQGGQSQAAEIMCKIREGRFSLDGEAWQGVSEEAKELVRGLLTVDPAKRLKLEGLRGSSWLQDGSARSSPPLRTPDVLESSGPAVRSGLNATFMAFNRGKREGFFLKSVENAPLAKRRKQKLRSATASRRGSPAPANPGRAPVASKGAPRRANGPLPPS
Chain of PAK2 (Q13177 whole entry): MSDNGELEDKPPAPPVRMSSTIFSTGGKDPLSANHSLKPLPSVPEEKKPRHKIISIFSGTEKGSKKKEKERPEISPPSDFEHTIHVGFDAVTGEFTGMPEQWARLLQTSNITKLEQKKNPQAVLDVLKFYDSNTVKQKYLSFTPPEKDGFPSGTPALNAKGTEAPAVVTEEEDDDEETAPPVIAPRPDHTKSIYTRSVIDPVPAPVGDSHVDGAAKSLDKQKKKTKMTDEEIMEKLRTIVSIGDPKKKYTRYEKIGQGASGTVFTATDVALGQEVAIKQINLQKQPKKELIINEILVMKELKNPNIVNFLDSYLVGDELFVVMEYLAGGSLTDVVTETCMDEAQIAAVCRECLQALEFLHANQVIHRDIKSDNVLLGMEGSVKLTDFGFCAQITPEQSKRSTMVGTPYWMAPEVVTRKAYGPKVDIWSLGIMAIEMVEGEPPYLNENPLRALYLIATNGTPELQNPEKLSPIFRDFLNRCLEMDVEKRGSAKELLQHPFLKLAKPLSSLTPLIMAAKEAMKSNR

`CC#CC(=O)Nc1ccc2ncnc(Nc3cccc(Br)c3)c2c1` [EKI-785] showed a pIC50 [1] of less than 4.52, a pIC50 [2] of less than 4.52 and a pIC50 [3] of less than 4.52. The pIC50 [4] was less than 4.52 and the pIC50 [5] was less than 4.52.
`CCNC(=O)c1cc(Nc2cc(C3CC3)[nH]n2)nc(N2CCN(Cc3ccc(S(=O)(=O)F)cc3)CC2)n1` was tested, and the pIC50 [6] was 5.12.
Work on `Cc1cc(Nc2cc(C(=O)NCCNC(=O)OC3CC/C=C/CCC3)nc(N3CCN(Cc4ccc(S(=O)(=O)F)cc4)CC3)n2)n[nH]1` (stereo not given) yielded a pIC50 [6] of less than 4.52 and a pIC50 [7] of less than 4.52.
Molecule `C#CCNC(=O)c1cc(Nc2cc(C3CC3)[nH]n2)nc(N2CCN(Cc3ccc(S(=O)(=O)F)cc3)CC2)n1` has a pIC50 [8] of less than 4.52, a pIC50 ([9]; cell material: Jurkat cells) of 5.09 and a pIC50 ([10]; cell material: Jurkat cells) of less than 4.52. The pIC50 ([10]; cell material: Jurkat lysate) was less than 4.52.
For `C#CCNC(=O)c1cc(Nc2cc(C)[nH]n2)nc(N2CCN(Cc3ccc(S(=O)(=O)F)cc3)CC2)n1`, the pIC50 [11] was 5.
With `O=C(NCCNC(=O)c1cc(Nc2cc(C3CC3)[nH]n2)nc(N2CCN(Cc3ccc(S(=O)(=O)F)cc3)CC2)n1)OC1CC/C=C/CCC1` (stereo not given) the pIC50 [8] was less than 4.52, the pIC50 ([9]; cell material: Jurkat cells) was less than 4.52 and the pIC50 ([9]; cell material: Jurkat lysate) was less than 4.52. For the same molecule, the pIC50 [11] was 5.77, the pIC50 ([10]; cell material: Jurkat cells) was less than 4.52 and the pIC50 ([10]; cell material: Jurkat lysate) was less than 4.52. The pIC50 [7] was less than 4.52.
Work on `CCc1cnn2c(NCc3ccc[n+]([O-])c3)cc(N3CCCC[C@H]3CCO)nc12` [dinaciclib] yielded a pIC50 [1] of less than 4.52, a pIC50 [2] of less than 4.52 and a pIC50 [3] of less than 4.52. It also gave a pIC50 [4] of 6.12 and a pIC50 [5] of less than 4.52.
